From patent US10112929B2, “Lactams as inhibitors of rock” (BRISTOL-MYERS SQUIBB COMPANY, priority 2015, dated 2018)
pIC50: −log10 of the molar value. Where a name gives a salt, the structure may show the parent alone.

Biological target: ROCK2 (Homo sapiens (Human), UniProt O75116)
Assay: biochemical
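Note: rho kinase enzyme reaction halted with EDTA, phospho- and non-phospho peptide separated for read-out, kinase activity inhibition derived across a dose-response series, DMSO under 2%.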

Sequence of ROCK2 (O75116 whole entry, species assumed): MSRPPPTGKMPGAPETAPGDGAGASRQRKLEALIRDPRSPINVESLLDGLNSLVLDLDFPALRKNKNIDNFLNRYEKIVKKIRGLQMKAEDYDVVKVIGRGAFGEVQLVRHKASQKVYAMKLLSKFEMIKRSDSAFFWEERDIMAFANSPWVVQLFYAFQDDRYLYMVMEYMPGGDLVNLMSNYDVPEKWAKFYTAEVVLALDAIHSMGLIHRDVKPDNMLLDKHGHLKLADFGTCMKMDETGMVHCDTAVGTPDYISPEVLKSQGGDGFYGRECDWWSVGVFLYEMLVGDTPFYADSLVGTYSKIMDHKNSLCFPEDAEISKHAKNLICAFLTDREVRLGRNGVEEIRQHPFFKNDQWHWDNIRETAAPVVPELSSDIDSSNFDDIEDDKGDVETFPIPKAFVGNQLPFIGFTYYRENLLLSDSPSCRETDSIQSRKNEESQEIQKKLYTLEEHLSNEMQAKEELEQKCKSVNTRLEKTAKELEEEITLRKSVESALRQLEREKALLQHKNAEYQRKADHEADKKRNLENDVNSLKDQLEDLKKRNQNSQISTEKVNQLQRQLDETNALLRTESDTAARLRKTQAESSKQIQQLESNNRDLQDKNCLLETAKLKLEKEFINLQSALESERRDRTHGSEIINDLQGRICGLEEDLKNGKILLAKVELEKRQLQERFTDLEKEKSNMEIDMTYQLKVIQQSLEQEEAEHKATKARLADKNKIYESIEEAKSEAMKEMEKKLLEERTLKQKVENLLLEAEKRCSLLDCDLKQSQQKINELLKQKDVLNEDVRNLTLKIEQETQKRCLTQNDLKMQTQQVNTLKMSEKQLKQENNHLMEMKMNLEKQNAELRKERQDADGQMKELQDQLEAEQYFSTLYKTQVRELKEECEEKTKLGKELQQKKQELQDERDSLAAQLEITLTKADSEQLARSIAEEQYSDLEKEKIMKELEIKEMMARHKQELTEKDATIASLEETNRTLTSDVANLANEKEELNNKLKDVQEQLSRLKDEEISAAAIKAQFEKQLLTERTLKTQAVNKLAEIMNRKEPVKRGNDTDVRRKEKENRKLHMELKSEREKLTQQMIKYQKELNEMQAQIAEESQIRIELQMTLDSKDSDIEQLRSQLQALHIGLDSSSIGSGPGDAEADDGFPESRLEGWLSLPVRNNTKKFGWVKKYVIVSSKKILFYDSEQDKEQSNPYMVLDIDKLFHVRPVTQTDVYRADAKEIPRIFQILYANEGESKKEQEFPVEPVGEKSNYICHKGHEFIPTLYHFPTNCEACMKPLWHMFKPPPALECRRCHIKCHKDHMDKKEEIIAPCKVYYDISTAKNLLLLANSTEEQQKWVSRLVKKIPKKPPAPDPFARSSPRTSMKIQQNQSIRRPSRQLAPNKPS

| SMILES | pIC50 |
| --- | --- |
| COc1cccc(NC2CCN(c3ccc(-c4cn[nH]c4)c(C(F)(F)F)c3)C2=O)c1 (single isomer, unassigned) [Example 367, 1-(4-(1H-pyrazol-4-yl)-3-(trifluoromethyl)phenyl)-3-((3-methoxyphenyl)amino) pyrrolidin-2-one] | 5.66 to 7.00 |
| COc1ccc(C(=O)OC2CCN(c3ccc(-c4cn[nH]c4)cc3)C2=O)c(N)c1 (racemic) [Example 327, 1-(4-(1H-pyrazol-4-yl)phenyl)-2-oxopyrrolidin-3-yl2-amino-4-methoxybenzoate] | 5.66 to 7.00 |
| COc1c(F)cccc1NC1CCN(c2ccc(-c3cn[nH]c3)c(F)c2)C1=O (single isomer, unassigned) [Example 337, 3-((3-fluoro-2-methoxyphenyl)amino)-1-(3-fluoro-4-(1H-pyrazol-4-yl)phenyl) pyrrolidin-2-one] | 5.66 to 7.00 |
| COc1cccc(NC2CCN(c3ccc(-c4ccnc(N)c4)cc3)C2=O)c1 (single isomer, unassigned) [Example 76, 1-(4-(2-aminopyridin-4-yl)phenyl)-3-((3-methoxyphenyl)amino) pyrrolidin-2-one] | 5.66 to 7.00 |
| COc1cccc(N[C@@H]2CCN(c3ccc(-c4cn[nH]c4)cc3)C2=O)c1OC [Example 385, (R)-1-(4-(1H-pyrazol-4-yl)phenyl)-3-((2,3-dimethoxyphenyl)amino)pyrrolidin-2-one] | 5.66 to 7.00 |
| COc1cccc(OC2CCN(c3ccc(-c4ccc5cn[nH]c5c4)c(OC)n3)C2=O)c1 (single isomer, unassigned) [Example 124, 1-(5-(1H-indazol-6-yl)-6-methoxypyridin-2-yl)-3-(3-methoxyphenoxy)pyrrolidin-2-one] | 5.66 to 7.00 |
| COc1cccc(N(C)C2CCN(c3ccc(-c4cn[nH]c4)cc3)C2=O)c1 (single isomer, unassigned) [Example 30, 1-(4-(1H-pyrazol-4-yl)phenyl)-3-((3-methoxyphenyl)(methyl)amino)pyrrolidin-2-one] | 7.00 to 8.00 |
| COc1cccc(NC2CCN(c3ccc(-c4cn[nH]c4)c(C(O)C(F)(F)F)c3)C2=O)c1 (racemic) [Example 348, 1-(4-(1H-pyrazol-4-yl)-3-(2,2,2-trifluoro-1-hydroxyethyl)phenyl)-3-((3-methoxyphenyl)amino)pyrrolidin-2-one] | 5.66 to 7.00 |
| COc1nc(N2CCC(Nc3cccc(-c4cnco4)c3)C2=O)ccc1-c1cn[nH]c1 (racemic) [Example 262, 1-(6-methoxy-5-(1H-pyrazol-4-yl)pyridin-2-yl)-3-((3-(oxazol-5-yl)phenyl)amino) pyrrolidin-2-one] | 7.00 to 8.00 |
| O=C1C(Oc2ccccc2)CCN1c1ccc(-c2cn[nH]c2)cc1 (stereo not drawn) [Example 64, 1-(4-(1H-pyrazol-4-yl)phenyl)-3-phenoxypyrrolidin-2-one] | 7.00 to 8.00 |
| COc1cc(NC2CCN(c3ccc(-c4cn[nH]c4)c(OC(F)F)c3)C2=O)ccc1F (single isomer, unassigned) [Example 106, 1-[3-(difluoromethoxy)-4-(1H-pyrazol-4-yl)phenyl]-3-[(4-fluoro-3-methoxyphenyl)amino]pyrrolidin-2-one] | 7.00 to 8.00 |
| CCOc1cccc(NC2CCN(c3ccc(-c4cn[nH]c4)c(OC)c3)C2=O)c1 (single isomer, unassigned) [Example 249, 3-((3-ethoxyphenyl)amino)-1-(3-methoxy-4-(1H-pyrazol-4-yl)phenyl)pyrrolidin-2-one] | 7.00 to 8.00 |
| CCc1cc(N2CCC(Nc3ccc(F)c(OC)c3)C2=O)ccc1-c1cn[nH]c1 (single isomer, unassigned) [Example 241, 1-(3-ethyl-4-(1H-pyrazol-4-yl)phenyl)-3-((4-fluoro-3-methoxyphenyl)amino) pyrrolidin-2-one] | 7.00 to 8.00 |
| COc1nc(N2CCC(N3CC[C@H](NC(C)=O)C3)C2=O)ccc1-c1cn[nH]c1 (mixture of isomers) [Example 294, N-((3S)-1′-(6-methoxy-5-(1H-pyrazol-4-yl)pyridin-2-yl)-2′-oxo-[1,3′-bipyrrolidin]-3-yl)acetamide] | 5.66 to 7.00 |
| Cc1cc(N2CCC(Nc3cccc(OCC4CC4)c3)C2=O)ncc1-c1cn[nH]c1 (single isomer, unassigned) [Example 206, 3-((3-(cyclopropylmethoxy)phenyl)amino)-1-(4-methyl-5-(1H-pyrazol-4-yl)pyridin-2-yl)pyrrolidin-2-one] | 5.66 to 7.00 |
| O=C1C(Cc2cccc(F)c2)CCN1c1ccc(-c2cn[nH]c2)cc1 (stereo not drawn) [Example 91, 1-(4-(1H-pyrazol-4-yl)phenyl)-3-(3-fluorobenzyl)pyrrolidin-2-one] | 5.66 to 7.00 |
| O=C1C(NCc2cccc(F)c2)CCN1c1ccc(-c2cn[nH]c2)cc1 (stereo not drawn) [Example 61, 1-(4-(1H-pyrazol-4-yl)phenyl)-3-((3-fluorobenzyl)amino)pyrrolidin-2-one, TFA] | 5.66 to 7.00 |

Second part, the compound after the results:

| pIC50 | SMILES |
| --- | --- |
| 7.00 to 8.00 | COc1cc(F)cc(NC2CCN(c3ccc(-c4cn[nH]c4)c(F)c3F)C2=O)c1 (single isomer, unassigned) [Example 309, 1-(2,3-difluoro-4-(1H-pyrazol-4-yl)phenyl)-3-((3-fluoro-5-methoxyphenyl)amino)pyrrolidin-2-one] |
| > 8.00 | O=C1C(Nc2cccc(OCC3CC3)c2)CCN1c1ccc(-c2cn[nH]c2)c(F)c1 (single isomer, unassigned) [Example 361, 3-((3-(cyclopropylmethoxy)phenyl)amino)-1-(3-fluoro-4-(1H-pyrazol-4-yl)phenyl)pyrrolidin-2-one] |
| 7.00 to 8.00 | COc1ccc(F)cc1NC1CCN(c2ccc(-c3cn[nH]c3)cc2)C1=O (stereo not drawn) [Example 5, 1-(4-(1H-pyrazol-4-yl)phenyl)-3-((5-fluoro-2-methoxyphenyl)amino)pyrrolidin-2-one] |
| 7.00 to 8.00 | COc1cccc(NC2CCN(c3ccc(-c4ccnc5[nH]ccc45)c(C)n3)C2=O)c1 (single isomer, unassigned) [Example 120, 3-((3-methoxyphenyl)amino)-1-(6-methyl-5-(1H-pyrrolo[2,3-b]pyridin-4-yl)pyridin-2-yl)pyrrolidin-2-one] |
| 7.00 to 8.00 | COc1nc(N2CCC(Nc3cccc(NS(C)(=O)=O)c3)C2=O)ccc1-c1cn[nH]c1 (racemic) [Example 265, N-(3-((1-(6-methoxy-5-(1H-pyrazol-4-yl)pyridin-2-yl)-2-oxopyrrolidin-3-yl)amino)phenyl)methanesulfonamide] |
| 7.00 to 8.00 | COc1cccc(NC2CCN(c3ncc(-c4cn[nH]c4)c(OC)n3)C2=O)c1 (stereo not drawn) [Example 132, 1-(4-Methoxy-5-(1H-pyrazol-4-yl)pyrimidin-2-yl)-3-((3-methoxyphenyl)amino) pyrrolidin-2-one] |
| 7.00 to 8.00 | COc1cccc(NC2CCN(c3ccc(-c4ccnc(N)c4)cc3)C2=O)c1 (single isomer, unassigned) [Example 77, 1-(4-(2-aminopyridin-4-yl)phenyl)-3-((3-methoxyphenyl)amino)pyrrolidin-2-one] |
| 7.00 to 8.00 | COc1cc(N2CCC(Nc3cccc(OC(C)C)c3)C2=O)ccc1-c1cn[nH]c1 (stereo not drawn) [Example 71, 3-((3-isopropoxyphenyl)amino)-1-(3-methoxy-4-(1H-pyrazol-4-yl)phenyl)pyrrolidin-2-one, TFA] |
| > 8.00 | COc1cc(F)cc(NC2CCN(c3ccc(-c4cn[nH]c4)c(F)c3)C2=O)c1 (single isomer, unassigned) [Example 49, 1-(3-fluoro-4-(1H-pyrazol-4-yl)phenyl)-3-((3-fluoro-5-methoxyphenyl)amino)pyrrolidin-2-one] |
| 7.00 to 8.00 | COc1nc(N2CCC(Nc3cccc(-c4nnn[nH]4)c3)C2=O)ccc1-c1cn[nH]c1 (racemic) [Example 266, 3-((3-(1H-tetrazol-5-yl)phenyl)amino)-1-(6-methoxy-5-(1H-pyrazol-4-yl)pyridin-2-yl)pyrrolidin-2-one] |
| 7.00 to 8.00 | O=C1[C@H](Nc2ccc3c(c2)OCO3)CCN1c1ccc(-c2cn[nH]c2)cc1 [Example 396, (R)-1-(4-(1H-pyrazol-4-yl)phenyl)-3-(benzo[d][1,3]dioxo1-5-ylamino)pyrrolidin-2-one] |
| 7.00 to 8.00 | COc1cc(NC2CCN(c3ccc(-c4cn[nH]c4)cc3F)C2=O)ccc1F (single isomer, unassigned) [Example 330, 3-((4-fluoro-3-methoxyphenyl)amino)-1-(2-fluoro-4-(1H-pyrazol-4-yl)phenyl) pyrrolidin-2-one] |
| > 8.00 | COc1cc(F)cc(NC2CCN(c3ccc(-c4cn[nH]c4)c(F)c3F)C2=O)c1 (single isomer, unassigned) [Example 310, 1-(2,3-difluoro-4-(1H-pyrazol-4-yl)phenyl)-3-((3-fluoro-5-methoxyphenyl)amino)pyrrolidin-2-one] |
| 7.00 to 8.00 | COc1cc(N2CCC(Nc3cccc(NS(C)(=O)=O)c3)C2=O)ccc1-c1cn[nH]c1 (stereo not drawn) [Example 73, N-(3-((1-(3-methoxy-4-(1H-pyrazol-4-yl)phenyl)-2-oxopyrrolidin-3-yl)amino)phenyl)methanesulfonamide] |
| 7.00 to 8.00 | COc1nc(N2CCC(N3CCc4cccnc43)C2=O)ccc1-c1cn[nH]c1 (racemic) [Example 281, 3-(2,3-dihydro-1H-pyrrolo[2,3-b]pyridin-1-yl)-1-(6-methoxy-5-(1H-pyrazol-4-yl)pyridin-2-yl)pyrrolidin-2-one] |
| > 8.00 | O=C1C(Nc2cccc(F)c2)CCN1c1ccc(-c2cn[nH]c2)c(F)c1 (single isomer, unassigned) [Example 47, 1-(3-fluoro-4-(1H-pyrazol-4-yl)phenyl)-3-((3-fluorophenyl)amino)pyrrolidin-2-one] |
| > 8.00 | COc1nc(N2CCC(N3CCNc4ccccc43)C2=O)ccc1-c1cn[nH]c1 (racemic) [Example 228, 3-(3,4-dihydroquinoxalin-1(2H)-yl)-1-(6-methoxy-5-(1H-pyrazol-4-yl)pyridin-2-yl)pyrrolidin-2-one] |
| > 8.00 | COc1cc(NC2CCN(c3ccc(-c4cn[nH]c4)c(F)c3)C2=O)ccc1F (single isomer, unassigned) [Example 332, 3-((4-fluoro-3-methoxyphenyl)amino)-1-(3-fluoro-4-(1H-pyrazol-4-yl)phenyl) pyrrolidin-2-one] |
| > 8.00 | O=C1[C@H](Nc2cccc(OCC3CC3)c2)CCN1c1ccc(-c2cn[nH]c2)cc1 (single isomer, unassigned) [Example 235, 1-(4-(1H-pyrazol-4-yl)phenyl)-3-((3-(cyclopropylmethoxy)phenyl)amino) pyrrolidin-2-one] |
